Test results published in US11161846B2, “Substituted pyrazolo[4,3-b]pyridines and their use as GluN2B receptor modulators” (JANSSEN PHARMACEUTICA NV, priority 2019, dated 2021).

How the values were obtained:
[1] = target: T1, human GluN1/GluN2B NMDA receptors (Homo sapiens, UniProt Q05586+Q13224); test: Calcium flux (FLIPR) assay on cloned human NR1/GluN2B ion channels expressed in mammalian cells, standard assay; assay type: cell-based; details: glutamate ~EC40 and 10 μM glycine, stable cell line with Tet-On induced expression
T1 construct: expressed in transfected cells
T1 sequence (Q13224 27-1484, other chains not shown): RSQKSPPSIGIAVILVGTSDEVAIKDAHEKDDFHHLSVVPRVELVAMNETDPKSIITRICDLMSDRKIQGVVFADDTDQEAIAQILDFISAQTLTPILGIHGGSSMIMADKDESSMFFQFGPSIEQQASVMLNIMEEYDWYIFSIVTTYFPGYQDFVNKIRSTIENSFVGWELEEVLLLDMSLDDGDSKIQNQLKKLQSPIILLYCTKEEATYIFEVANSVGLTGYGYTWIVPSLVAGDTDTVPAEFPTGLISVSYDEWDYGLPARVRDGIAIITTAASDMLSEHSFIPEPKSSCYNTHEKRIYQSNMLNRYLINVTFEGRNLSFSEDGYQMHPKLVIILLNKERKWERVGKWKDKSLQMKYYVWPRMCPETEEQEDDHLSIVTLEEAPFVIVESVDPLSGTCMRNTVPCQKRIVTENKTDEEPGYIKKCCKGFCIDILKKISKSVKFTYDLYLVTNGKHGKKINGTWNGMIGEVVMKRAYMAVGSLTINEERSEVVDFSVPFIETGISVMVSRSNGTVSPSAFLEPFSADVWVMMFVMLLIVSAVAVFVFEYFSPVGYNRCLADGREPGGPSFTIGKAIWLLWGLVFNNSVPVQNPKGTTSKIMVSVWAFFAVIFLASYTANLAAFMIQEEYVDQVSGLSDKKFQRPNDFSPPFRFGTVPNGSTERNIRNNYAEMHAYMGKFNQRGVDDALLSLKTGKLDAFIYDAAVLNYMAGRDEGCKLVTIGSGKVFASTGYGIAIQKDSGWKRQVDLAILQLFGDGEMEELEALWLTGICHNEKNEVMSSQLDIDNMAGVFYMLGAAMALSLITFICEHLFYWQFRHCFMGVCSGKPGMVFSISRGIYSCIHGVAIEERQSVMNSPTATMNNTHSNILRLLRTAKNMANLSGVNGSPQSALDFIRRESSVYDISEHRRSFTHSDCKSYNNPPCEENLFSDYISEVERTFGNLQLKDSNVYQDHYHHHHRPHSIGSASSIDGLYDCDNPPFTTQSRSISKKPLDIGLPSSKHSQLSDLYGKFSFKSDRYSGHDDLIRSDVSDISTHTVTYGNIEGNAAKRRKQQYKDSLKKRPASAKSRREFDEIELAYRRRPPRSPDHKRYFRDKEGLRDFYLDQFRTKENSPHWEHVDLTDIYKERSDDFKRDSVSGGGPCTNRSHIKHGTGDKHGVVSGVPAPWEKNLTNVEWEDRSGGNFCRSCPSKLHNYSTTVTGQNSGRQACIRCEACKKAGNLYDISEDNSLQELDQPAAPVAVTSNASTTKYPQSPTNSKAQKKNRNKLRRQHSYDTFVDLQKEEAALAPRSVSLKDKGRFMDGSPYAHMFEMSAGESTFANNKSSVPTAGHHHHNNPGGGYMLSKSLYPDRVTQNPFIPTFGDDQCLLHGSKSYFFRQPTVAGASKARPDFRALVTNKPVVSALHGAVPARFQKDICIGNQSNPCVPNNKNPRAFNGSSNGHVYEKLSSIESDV
In short: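 Tet-On-induced stable mammalian line loaded with Calcium 5 dye (0.5 mM MgCl2 loading buffer), then assayed in pH 7.4 buffer with 137 mM NaCl, 4 mM KCl, 2 mM CaCl2. Compound was added for 5 min, then glutamate (~EC40) plus 10 µM glycine for 5 min. FLIPR fluorescence was normalized to control wells.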

[2] = Liver microsomal stability (extraction ratio); assay type: in vitro ADME; details: test compound 1 μM; 0.5 mg/mL liver microsomes, NADPH, 37° C.; species not given (method: mouse, rat, and human)
Experimental: Protocol for Liver Microsomal Stability (Extraction Ratio)
Liver Microsomal Stability.
Microsomal stability studies (Chrovian et al, “1H-Pyrrolo[3,2-b]pyridine GluN2B-Selective Negative Allosteric Modulators”. ACS Med Chem Lett. 2019 Jan. 10; 10(3):261-266) were conducted on a Biomek® FX Robotic Liquid Handling Workstation (Beckman Coulter, Brea, Calif.), which consists of a 96-channel pipette head, a 12-position workstation deck, and a plate incubator. Test compounds (1 μm) were spiked in a reaction mix consisting of 100 mM potassium phosphate buffer (pH 7.4), 3 mM MgCl2, and 0.5 mg/mL liver microsomes from mouse, rat, and human (BD Gentest). The reaction was brought to 37° C. and initiated by adding NADPH to a final concentration of 1 mM. After mixing on the plate deck, 50 μL aliquots were excised from the reaction plate at 0, 5, 10, 20, 40, and 60 min and quenched with four volumes of acetonitrile spiked with […] of the internal standard phenytoin. Quenched plates were centrifuged at 5700 rpm for 10 min at 4° C., and supernatant was diluted 1:3 in water before LC/MS/MS analysis. The compound half-lives were derived from plots of the ln of percent remaining compound over time to determine the intrinsic clearance. The predicted hepatic clearance was derived from the intrinsic clearance value using equations from the well-stirred model (Current Drug Metabolism, 2008, 9, 940-951), where no correction was made plasma protein binding and the blood to plasma concentration ratio was assumed to be one. The extraction ratio (ER) was calculated by dividing the predicted hepatic clearance by species blood flow (Q), where Q is 90, 55, and 21.7 mL/min/kg for mouse, rat and human, respectively.

IC50 [1] | Extraction Ratio @ 1 μM [2] | Compound
193 nM | 0.58 | CCN1CC(Cn2ncc3ncc(-c4ccc(F)c(C(F)F)c4)cc32)OC1=O (racemic) [Example 131, (RS)-5-[[6-[3-(Difluoromethyl)-4-fluoro-phenyl]pyrazolo[4,3-b]pyridin-1-yl]methyl]-3-ethyl-oxazolidin-2-one]
80 nM | 0.50 | CC[S+]([O-])Cn1ncc2ncc(-c3cccc(C(F)(F)F)c3F)cc21 (racemic) [Example 86, (RS)-1-(Ethylsulfinylmethyl)-6-[2-fluoro-3-(trifluoromethyl)phenyl]pyrazolo[4,3-b]pyridine]
30 nM | 0.61 | CCC(=O)Cn1ncc2ncc(-c3cccc(C(F)(F)F)c3F)cc21 [Example 38, 1-[6-[2-Fluoro-3-(trifluoromethyl)phenyl]pyrazolo[4,3-b]pyridin-1-yl]butan-2-one]
34 nM | 0.64 | CC(=O)Cn1ncc2ncc(-c3ccc(F)c(OC(F)F)c3)cc21 [Example 25, 1-[6-[3-(Difluoromethoxy)-4-fluoro-phenyl]pyrazolo[4,3-b]pyridin-1-yl]propan-2-one]
